One data set has as its target T1, human mGlu2 receptor (Homo sapiens, UniProt Q14416).
T1 construct: expressed in transfected cells; host or cells: CHO cells (membrane preparation)
The data set can be described thus: [35S]GTPγS binding assay, mGluR2 negative allosteric modulation. The format is biochemical. Conditions: for Emax: maximal % inhibition relative to the control glutamate response (EC80 glutamate), read-out: GTPγS-hmGluR2 anGT Emax; for IC50: membranes from CHO cells transfected with human mGlu2 receptor, glutamate ~EC80 (60 μM), read-out: GTPγS-hmGluR2 anGT pIC50 (converted). As to the method:
Total reaction volume was 200 μl. […] Membrane-bound radioactivity was counted in a Topcount.

The subject of another data set is rats. The data set can be described thus: Reversal of the effect of the mGluR2 PAM JNJ-42153605-induced inhibition of scopolamine-induced hyperlocomotion. Conditions: Rattus norvegicus; rats; PO, 60 min pretreatment; JNJ-42153605 20 mg/kg i.v. + scopolamine 0.16 mg/kg i.v.; criterion total distance >1500 cm in 30 min; read-out: SCOP JNJ-42153605 ED50. In kind it is in vivo, rat. As to the method:
Motor activity was measured in microprocessor-based motor activity arenas (closed gray PVC cylinders with a height of 39 cm and a diameter of 31 cm). Each arena was placed on an infrared LED (8×8 LEDs) lit box (white PVC squared box; 40×40 cm^2; height 12.5 cm. An infrared-sensitive tube camera and a white light source were mounted to the ceiling above the observation chamber to track the animal. […] Noldus, Wageningen, The Netherlands). The intensity of the light within the activity cages (measured in the centre at the level of the floor) ranged between 4 and 8 LUX. The rats were pretreated with test compound or vehicle at 60 min before the start of the activity recordings and placed into individual cages. […] WO2010/130424; Cid et al. J. Med.

T1 sequence (Q14416 19-872): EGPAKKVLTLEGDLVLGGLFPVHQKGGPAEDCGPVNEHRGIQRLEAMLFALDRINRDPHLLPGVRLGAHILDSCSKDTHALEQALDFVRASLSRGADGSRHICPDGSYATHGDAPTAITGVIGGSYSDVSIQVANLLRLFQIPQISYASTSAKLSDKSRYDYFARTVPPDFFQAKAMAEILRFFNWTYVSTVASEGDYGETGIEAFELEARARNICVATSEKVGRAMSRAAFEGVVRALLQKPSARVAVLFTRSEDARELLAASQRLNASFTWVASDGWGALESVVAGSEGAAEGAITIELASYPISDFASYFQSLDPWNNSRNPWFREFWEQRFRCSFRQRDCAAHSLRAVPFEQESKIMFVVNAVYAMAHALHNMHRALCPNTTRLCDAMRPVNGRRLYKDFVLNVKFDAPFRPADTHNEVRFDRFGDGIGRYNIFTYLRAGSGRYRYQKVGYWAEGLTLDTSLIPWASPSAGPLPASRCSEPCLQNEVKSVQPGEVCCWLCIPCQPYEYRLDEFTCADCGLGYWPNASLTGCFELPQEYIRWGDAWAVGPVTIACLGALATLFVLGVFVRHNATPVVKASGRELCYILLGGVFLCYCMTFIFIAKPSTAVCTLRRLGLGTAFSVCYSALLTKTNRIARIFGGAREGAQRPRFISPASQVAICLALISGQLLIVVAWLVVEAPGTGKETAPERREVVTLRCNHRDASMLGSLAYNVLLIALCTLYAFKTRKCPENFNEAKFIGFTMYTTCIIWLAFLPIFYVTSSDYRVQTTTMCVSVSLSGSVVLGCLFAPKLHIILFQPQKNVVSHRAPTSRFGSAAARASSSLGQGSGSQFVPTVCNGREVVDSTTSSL

On to `C[C@H]1CN(c2ccc(C(F)(F)F)c(Cl)c2)C(=O)c2c(-c3cc(-c4cccnc4)on3)cnn21` [Co. No. 11, (7S)-5-[3-chloro-4-(trifluoromethyl)phenyl]-7-methyl-3-[5-(3-pyridyl)isoxazol-3-yl]-6,7-dihydropyrazolo[1,5-a]pyrazin-4-one], for which the melting point was determined as 156.64 °C. In addition, on human mGlu2 receptor, the Emax was found to be 110% and the IC50 is 2.45 nM. The ED50 in the data set with rats was greater than 0.63 mg/kg.
For the molecule `C[C@H]1CN(c2ccc(C(F)(F)F)c(Cl)c2)C(=O)c2c(-c3cc(-c4cncc(F)c4)on3)cnn21` [Co. No. 21, (7S)-5-[3-chloro-4-(trifluoromethyl)phenyl]-3-[5-(5-fluoro-3-pyridyl)isoxazol-3-yl]-7-methyl-6,7-dihydropyrazolo[1,5-a]pyrazin-4-one], the melting point came to 197.03 °C. Besides, on human mGlu2 receptor, the Emax is 103% and the IC50 was 6.61 nM. The ED50 in the data set with rats is greater than 0.63 mg/kg.
In turn, `C[C@H]1CN(c2ccc(C(F)(F)F)cc2)C(=O)c2c(-c3cc(-c4cccnc4)on3)cnn21` [Co. No. 5, (7S)-7-methyl-3-[5-(3-pyridyl)isoxazol-3-yl]-5-[4-(trifluoromethyl)phenyl]-6,7-dihydropyrazolo[1,5-a]pyrazin-4-one] yielded a melting point of 215.1 °C. Moreover, at human mGlu2 receptor, the Emax worked out at 106% and the IC50 was 11.2 nM. In addition, in the data set with rats, the ED50 is 0.51 mg/kg.
For `Cc1ccncc1-c1cc(-c2cnn3c2C(=O)N(c2ccc(C(F)(F)F)c(C)c2)C[C@@H]3C)no1` [Co. No. 22, (7S)-7-methyl-3-[5-(4-methyl-3-pyridyl)isoxazol-3-yl]-5-[3-methyl-4-(trifluoromethyl)phenyl]-6,7-dihydropyrazolo[1,5-a]pyrazin-4-one] the same measures were 171.25 °C, 110%, 2.09 nM and greater than 0.63 mg/kg.
On to `Cc1ccncc1-c1cc(-c2cnn3c2C(=O)N(c2ccc(C(F)(F)F)cc2)C[C@@H]3C)no1` [Co. No. 18, (7S)-7-Methyl-3-[5-(4-methyl-3-pyridyl)isoxazol-3-yl]-5-[4-(trifluoromethyl)phenyl]-6,7-dihydropyrazolo[1,5-a]pyrazin-4-one], for which the melting point worked out at 197.33 °C. For the same molecule, at human mGlu2 receptor, the Emax was 109% and the IC50 was 2.24 nM. Moreover, in the data set on rats, the ED50 is 0.51 mg/kg.
Take `C[C@H]1CN(c2ccc(C(F)(F)F)cc2)C(=O)c2c(-c3cc(-c4ccc(N)nc4)on3)cnn21` [Co. No. 2, (7S)-3-[5-(6-Amino-3-pyridyl)isoxazol-3-yl]-7-methyl-5-[4-(trifluoromethyl)phenyl]-6,7-dihydropyrazolo[1,5-a]pyrazin-4-one]: the melting point was found to be 233.79 °C. Moreover, on human mGlu2 receptor, the Emax was found to be 103% and the IC50 was 2.04 nM. The ED50 in the data set on rats turned out to be 0.5 mg/kg.

These data come from US10017514B2, “6,7-dihydropyrazolo[1,5-α]pyrazin-4(5H)-one compounds and their use as negative allosteric modulators of mGluR2 receptors” (Janssen Pharmaceutica NV, priority 2014, dated 2018).
